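GI50: concentration for 50% inhibition of growth. The concentration for full growth arrest is given as TGI.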
What was measured:
Test in all cases: growth of human tumour cells (NCI), 384-well format
[1] = system: M14 melanoma
[2] = system: SK-OV-3 ovarian
[3] = system: SK-MEL-5 melanoma
[4] = system: CAKI-1 renal
[5] = system: RPMI-8226 leukemia
[6] = system: PC-3 prostate
[7] = system: UACC-62 melanoma
[8] = system: MALME-3M melanoma
[9] = system: CCRF-CEM leukemia
[10] = system: A549 NSCLC
[11] = system: OVCAR-3 ovarian
[12] = system: SF-268 CNS
[13] = system: SF-295 CNS
[14] = system: NCI-H322M lung
[15] = system: MDA-MB-435 melanoma
[16] = system: COLO 205 colon
[17] = system: MDA-MB-468 breast
[18] = system: HCT-116 colon
[19] = system: RXF 393 renal
[20] = system: K-562 leukemia
[21] = system: OVCAR-8 ovarian
[22] = system: DU-145 prostate
[23] = system: OVCAR-5 ovarian
[24] = system: U251 glioblastoma
[25] = system: SK-MEL-28 melanoma
[26] = system: TK-10 renal
[27] = system: A498 renal
[28] = system: SW-620 colon
[29] = system: UACC-257 melanoma
[30] = system: SR leukemia
[31] = system: SF-539 CNS
[32] = system: HL-60(TB) leukemia
[33] = system: HCT-15 colon
[34] = system: OVCAR-4 ovarian
[35] = system: ACHN renal
[36] = system: LOX IMVI melanoma
[37] = system: HOP-62 NSCLC
[38] = system: NCI-H23 lung
[39] = system: NCI-H460 NSCLC
[40] = system: HOP-92 NSCLC
[41] = system: KM12 colon
[42] = system: HCC-2998 colon
[43] = system: SNB-19 CNS
[44] = system: IGROV1 ovarian
[45] = system: HT29 colon
[46] = system: NCI/ADR-RES ovarian
[47] = system: SK-MEL-2 melanoma
[48] = system: MDA-MB-231 breast
[49] = system: 786-0 renal
[50] = system: NCI-H226 lung
[51] = system: MOLT-4 leukemia
[52] = system: UO-31 renal
[53] = system: NCI-H522 lung
[54] = system: T-47D breast
[55] = system: MCF7 breast
[56] = system: BT-549 breast
[57] = system: SN12C renal
[58] = system: EKVX NSCLC
[59] = system: SNB-75 CNS
[60] = system: HS 578T breast

Compound: C[C@H](CCOc1cccc(CC(=O)O)c1)N(Cc1cccc(C(F)(F)F)c1Cl)CC(c1ccccc1)c1ccccc1
- GI50 [1]: 5.84 µM
- TGI [1]: 18.2 µM
- GI50 [2]: 9.13 µM
- TGI [2]: 21.2 µM
- GI50 [3]: 3.29 µM
- TGI [3]: 11.1 µM
- GI50 [4]: 6.37 µM
- TGI [4]: 18.5 µM
- GI50 [5]: 1.5 µM
- TGI [5]: 2.93 µM
- GI50 [6]: 4.33 µM
- TGI [6]: 13.1 µM
- GI50 [7]: 9.52 µM
- TGI [7]: 21.4 µM
- GI50 [8]: 15 µM
- TGI [8]: 28.3 µM
- GI50 [9]: 1.72 µM
- TGI [9]: 4.13 µM
- GI50 [10]: 3.46 µM
- TGI [10]: 12 µM
- GI50 [11]: 2.79 µM
- TGI [11]: 7.28 µM
- GI50 [12]: 3.04 µM
- TGI [12]: 11 µM
- GI50 [13]: 2.64 µM
- TGI [13]: 7.41 µM
- GI50 [14]: 4.7 µM
- TGI [14]: 17.3 µM
- GI50 [15]: 10.9 µM
- TGI [15]: 23 µM
- GI50 [16]: 8.19 µM
- TGI [16]: 20.5 µM
- GI50 [17]: 3.06 µM
- TGI [17]: 7.76 µM
- GI50 [18]: 3 µM
- TGI [18]: 11.2 µM
- GI50 [19]: 2.1 µM
- TGI [19]: 5.24 µM
- GI50 [20]: 3.55 µM
- TGI [20]: 13.4 µM
- GI50 [21]: 4.56 µM
- TGI [21]: 15.4 µM
- GI50 [22]: 5.06 µM
- TGI [22]: 16.5 µM
- GI50 [23]: 11.2 µM
- TGI [23]: 23.3 µM
- GI50 [24]: 2.69 µM
- TGI [24]: 7.64 µM
- GI50 [25]: 15.8 µM
- TGI [25]: 29.3 µM
- GI50 [26]: 6.54 µM
- TGI [26]: 18.8 µM
- GI50 [27]: 4.51 µM
- TGI [27]: 15.6 µM
- GI50 [28]: 4.66 µM
- TGI [28]: 15.7 µM
- GI50 [29]: 3.35 µM
- TGI [29]: 13 µM
- GI50 [30]: 1.73 µM
- TGI [30]: 3.16 µM
- GI50 [31]: 3.92 µM
- TGI [31]: 14.2 µM
- GI50 [32]: 2.26 µM
- TGI [32]: 4.22 µM
- GI50 [33]: 3.83 µM
- TGI [33]: 13 µM
- GI50 [34]: 5.04 µM
- TGI [34]: 18.2 µM
- GI50 [35]: 5 µM
- TGI [35]: 16.1 µM
- GI50 [36]: 4.34 µM
- TGI [36]: 17.5 µM
- GI50 [37]: 3.86 µM
- TGI [37]: 12.9 µM
- GI50 [38]: 2.28 µM
- TGI [38]: 5.31 µM
- GI50 [39]: 3.5 µM
- TGI [39]: 11.3 µM
- GI50 [40]: 2.97 µM
- TGI [40]: 8.88 µM
- GI50 [41]: 3.76 µM
- TGI [41]: 12.5 µM
- GI50 [42]: 2.58 µM
- TGI [42]: 7.25 µM
- GI50 [43]: 4.66 µM
- TGI [43]: 14 µM
- GI50 [44]: 5.92 µM
- TGI [44]: 18.5 µM
- GI50 [45]: 4.23 µM
- TGI [45]: 16.2 µM
- GI50 [46]: 3.54 µM
- TGI [46]: 12.5 µM
- GI50 [47]: 14 µM
- TGI [47]: 27 µM
- GI50 [48]: 10.2 µM
- TGI [48]: 21.9 µM
- GI50 [49]: 4.3 µM
- TGI [49]: 15.4 µM
- GI50 [50]: 4.17 µM
- TGI [50]: 15.7 µM
- GI50 [51]: 1.61 µM
- TGI [51]: 3.15 µM
- GI50 [52]: 5.07 µM
- TGI [52]: 16.7 µM
- GI50 [53]: 2.55 µM
- TGI [53]: 9.37 µM
- GI50 [54]: 1.84 µM
- TGI [54]: 10 µM
- GI50 [55]: 3.9 µM
- TGI [55]: 14 µM
- GI50 [56]: 3.27 µM
- TGI [56]: 12.7 µM
- GI50 [57]: 5.1 µM
- TGI [57]: 16.2 µM

Compound: Nc1nc(Cl)nc2c1ncn2C1CC(O)C(CO)O1 (configuration not stated)
- GI50 [1]: 0.108 µM
- TGI [1]: 0.448 µM
- GI50 [2]: 3.01 µM
- TGI [2]: > 100 µM
- GI50 [58]: > 100 µM
- TGI [58]: > 100 µM
- GI50 [4]: 0.353 µM
- TGI [4]: > 100 µM
- GI50 [5]: 0.372 µM
- TGI [5]: 1.61 µM
- GI50 [6]: > 100 µM
- TGI [6]: > 100 µM
- GI50 [7]: 0.177 µM
- TGI [7]: 0.501 µM
- GI50 [8]: 0.308 µM
- TGI [8]: > 100 µM
- GI50 [9]: 0.0812 µM
- TGI [9]: 0.206 µM
- GI50 [10]: 0.434 µM
- TGI [10]: > 100 µM
- GI50 [11]: 2.09 µM
- TGI [11]: > 100 µM
- GI50 [12]: 2.89 µM
- TGI [12]: 19.8 µM
- GI50 [13]: 11.2 µM
- TGI [13]: 34.1 µM
- GI50 [14]: 37.5 µM
- TGI [14]: > 100 µM
- GI50 [15]: 0.743 µM
- TGI [15]: > 100 µM
- GI50 [17]: 3.03 µM
- TGI [17]: 16.2 µM
- GI50 [18]: 0.27 µM
- TGI [18]: > 100 µM
- GI50 [19]: 47.8 µM
- TGI [19]: > 100 µM
- GI50 [20]: 0.428 µM
- TGI [20]: > 100 µM
- GI50 [21]: 0.0356 µM
- TGI [21]: > 100 µM
- GI50 [22]: 0.808 µM
- TGI [22]: > 100 µM
- GI50 [23]: 0.764 µM
- TGI [23]: > 100 µM
- GI50 [24]: 0.825 µM
- TGI [24]: 15.8 µM
- GI50 [25]: 0.552 µM
- TGI [25]: > 100 µM
- GI50 [26]: > 100 µM
- TGI [26]: > 100 µM
- GI50 [27]: 0.701 µM
- TGI [27]: > 100 µM
- GI50 [28]: 0.712 µM
- TGI [28]: > 100 µM
- GI50 [29]: 1.39 µM
- TGI [29]: > 100 µM
- GI50 [31]: 2.63 µM
- TGI [31]: 12.2 µM
- GI50 [32]: 0.0353 µM
- TGI [32]: 0.108 µM
- GI50 [59]: 19.9 µM
- TGI [59]: 87.8 µM
- GI50 [60]: 70.7 µM
- TGI [60]: > 100 µM
- GI50 [33]: 0.395 µM
- TGI [33]: > 100 µM
- GI50 [34]: > 100 µM
- TGI [34]: > 100 µM
- GI50 [35]: 0.923 µM
- TGI [35]: 5.14 µM
- GI50 [36]: 1.11 µM
- TGI [36]: 3.8 µM
- GI50 [37]: 0.236 µM
- TGI [37]: 0.969 µM
- GI50 [38]: 0.212 µM
- TGI [38]: 0.481 µM
- GI50 [40]: 9.31 µM
- TGI [40]: > 100 µM
- GI50 [41]: 0.994 µM
- TGI [41]: > 100 µM
- GI50 [43]: 0.738 µM
- TGI [43]: > 100 µM
- GI50 [44]: 14.7 µM
- TGI [44]: > 100 µM
- GI50 [45]: 1.37 µM
- TGI [45]: > 100 µM
- GI50 [46]: 0.135 µM
- TGI [46]: > 100 µM
- GI50 [48]: 0.481 µM
- TGI [48]: > 100 µM
- GI50 [49]: 1.28 µM
- TGI [49]: > 100 µM
- GI50 [50]: 3.58 µM
- TGI [50]: 18.2 µM
- GI50 [51]: 0.0229 µM
- TGI [51]: 0.0596 µM
- GI50 [52]: 0.372 µM
- TGI [52]: 3.85 µM
- GI50 [53]: 0.83 µM
- TGI [53]: > 100 µM
- GI50 [54]: 6.73 µM
- TGI [54]: > 100 µM
- GI50 [55]: 0.65 µM
- TGI [55]: > 100 µM
- GI50 [56]: 0.184 µM
- TGI [56]: 0.977 µM
- GI50 [57]: 0.122 µM
- TGI [57]: 0.926 µM
